How the values were obtained:
[1] = system: methicillin resistant S. aureus Mu50 strain (S. aureus ATCC700699) biofilm; experiment: Biofilm susceptibility to vancomycin, pre-treatment regimen (biofilm formed in presence of compound, then vancomycin); format: cell-based; details: for Pretreat (100 μM): percentage Colony Forming Units (CFU's) per biofilm: compound 100 μM during biofilm formation; for Pretreat (100 μM): percentage Colony Forming Units (CFU's) per biofilm / Pretreat. (25 μM): percentage Colony Forming Units (CFU's) per biofilm: then VAN 20 μg/ml, compared to the untreated (negative) control; for EC50: concentration needed to get 50% killing compared to antibiotic alone (VAN 20 μg/ml) and complete killing, read-out: Pretreat. (EC50); for Pretreat. (25 μM): percentage Colony Forming Units (CFU's) per biofilm: compound 25 μM during biofilm formation
Description: (§1) The compounds were evaluated for their effect on biofilm susceptibility both under pre-treatment and combination treatment regimens. In the pre-treatment regimen, a methicillin resistant S. aureus Mu50 strain (S. aureus ATCC700699) was allowed to form biofilms in the presence of the compounds after which the biofilm was treated with vancomycin (20 μg/ml). In the combination treatment regimen, S. aureus Mu50 was allowed to form a mature biofilm after which it was treated with a combination of a compound and vancomycin. In brief, 100 μl of a standardized inoculum (10^8 CFU/ml) was placed in the wells of a round-bottom 96-well microtiter plate. The cells were allowed to adhere to the plate in the absence (combined treatment) or presence (pre-treatment) of the compounds (0.1-250 μM) for 4 h at 37° C. After this adhesion step, non-adhered cells were removed, the wells were rinsed and fresh medium with or without the compounds was added. The plates were incubated for an additional 20 h at 37° C. After this, the medium was removed, biofilms were rinsed with physiological saline and vancomycin (20 μg/ml) was added alone (pre-treatment) or with the compounds (combined treatment, 0.1-250 μM). Plates were placed at 37° C. for 24 h after which medium was removed, wells were rinsed and the surviving cells in each condition were collected. The number of surviving cells under each condition was compared to vancomycin treatment alone and was assessed by conventional plating. The REF compound (hamamelitannin) was also observed for its effect on biofilm susceptibility towards other antibiotics (incl. vancomycin, cefoxitin, tobramycin, cefazolin, cefalonium, daptomycin, linezolide and cephalexin). Biofilms were formed as described above and were treated with the antibiotics alone or in combination with the REF compound (250 μM). The number of surviving cells under each condition was compared to the untreated control biofilm and was assessed by conventional plating.

[2] = system: methicillin resistant S. aureus Mu50 strain (S. aureus ATCC700699) biofilm; experiment: Biofilm susceptibility to vancomycin, combination treatment regimen (mature biofilm treated with compound plus vancomycin); format: cell-based; details: for Combin. (100 μM): percentage Colony Forming Units (CFU's) per biofilm: compound 100 μM together with VAN 20 μg/ml on mature biofilm; for Combin. (100 μM): percentage Colony Forming Units (CFU's) per biofilm / Combin. (25 μM): percentage Colony Forming Units (CFU's) per biofilm: compared to the untreated (negative) control; for EC50: concentration needed to get 50% killing compared to antibiotic alone (VAN 20 μg/ml) and complete killing, read-out: Combin. (EC50); for Combin. (25 μM): percentage Colony Forming Units (CFU's) per biofilm: compound 25 μM together with VAN 20 μg/ml on mature biofilm
Description: as §1

Compound | Pretreat (100 μM): percentage Colony Forming Units (CFU's) per biofilm [1] [percentage] | EC50 [1] [µM] | Combin. (100 μM): percentage Colony Forming Units (CFU's) per biofilm [2] [percentage] | EC50 [2] [µM] | Pretreat. (25 μM): percentage Colony Forming Units (CFU's) per biofilm [1] [percentage] | Combin. (25 μM): percentage Colony Forming Units (CFU's) per biofilm [2] [percentage]
CN(C[C@]1(O)CO[C@H](CNC(=O)c2ccccc2)[C@H]1O)C(=O)c1ccccc1 [compound 229, N-(((3S,4R,5R)-5-(benzamidomethyl)-3,4-dihydroxytetrahydrofuran-3-yl)methyl)-N-methylbenzamide] | 7.17 | 5.82 | 11.15 | 8.92 |  | 
O=C(NC[C@H]1OC[C@@](O)(CNC(=O)c2ccccc2)[C@@H]1O)c1ccc(Cl)cc1 [compound 153, N-(((2R,3R,4S)-4-(benzamidomethyl)-3,4-dihydroxytetrahydrofuran-2-yl)methyl)-4-chlorobenzamide] | 9.185 | 18 | 8.577 | 21.4 |  | 
O=C(NC[C@]1(O)CO[C@H](CNC(=O)c2c(Cl)ccnc2Cl)[C@H]1O)c1ccccc1 [compound 196, N-(((2R,3R,4S)-4-(benzamidomethyl)-3,4-dihydroxytetrahydrofuran-2-yl)methyl)-2,4-dichloronicotinamide] | 21.86 | 13 | 8.072 | 7.88 |  | 
O=C(NC[C@H]1OC[C@@](O)(CNC(=O)c2ccc(-c3ccccc3)cc2)[C@@H]1O)c1ccnnc1 [compound 253, N-(((2R,3R,4S)-4-([1,1′-biphenyl]-4-carboxamidomethyl)-3,4-dihydroxytetrahydrofuran-2-yl)methyl)pyridazine-4-carboxamide] | 4.25 | 8.54 | 22.50 | 45.4 |  | 
O=C(NC[C@]1(O)CO[C@H](CNC(=O)c2ccccc2Cl)[C@H]1O)c1ccco1 [compound 246, N-(((3S,4R,5R)-5-((2-chlorobenzamido)methyl)-3,4-dihydroxytetrahydrofuran-3-yl)methyl)furan-2-carboxamide] |  |  |  |  | 87.98 | 62.82
O=C(CCc1ccccc1)NC[C@H]1OC[C@@](O)(CNC(=O)c2ccccc2)[C@@H]1O [compound 190, N-(((3S,4R,5R)-3,4-dihydroxy-5-((3-phenylpropanamido)methyl)tetrahydrofuran-3-yl)methyl)benzamide] | 64.43 |  | 29.24 |  |  | 
O=C(NC[C@]1(O)CO[C@H](CNCc2ccccc2)[C@H]1O)c1ccccc1 [compound 228, N-(((3S,4R,5R)-5-((benzylamino)methyl)-3,4-dihydroxytetrahydrofuran-3-yl)methyl)benzamide] | 18.68 | 41.2 | 22.13 | 45.2 |  | 
O=C(NC[C@H]1OC(O)[C@@](O)(CNC(=O)c2cc(O)cc(O)c2)[C@@H]1O)c1cc(O)cc(O)c1 (stereo partly drawn) [compound 18, N,N′-(((2R,3R,4R)-3,4,5-trihydroxytetrahydrofuran-2,4-diyl)bis(methylene))bis(3,5-dihydroxybenzamide)] | 37.58 | 116 | 79.55 | 231 |  | 
O=C(NC[C@]1(O)CO[C@H](CNS(=O)(=O)c2ccc(Cl)cc2)[C@H]1O)c1ccccc1 [compound 217, N-(((3S,4R,5R)-5-(((4-chlorophenyl)sulfonamido)methyl)-3,4-dihydroxytetrahydrofuran-3-yl)methyl)benzamide] | 14.04 | 23.5 | 14.85 | 27.8 |  | 
O=C(NC[C@@H]1OC[C@@](O)(CNC(=O)c2ccccc2)[C@@H]1O)c1ccccc1 [compound 270, N,N′-(((2S,3R,4S)-3,4-dihydroxytetrahydrofuran-2,4-diyl)bis(methylene))dibenzamide] | 51.80 | 224 | 55.70 | > 250 |  | 
Cc1ccc(C(=O)NC[C@H]2OC[C@@](O)(CNC(=O)c3ccccc3)[C@@H]2O)cc1C [compound 180, N-(((2R,3R,4S)-4-(benzamidomethyl)-3,4-dihydroxytetrahydrofuran-2-yl)methyl)-3,4-dimethylbenzamide] | 79.13 |  | 65.66 |  |  | 
COc1cccc(C(=O)NC[C@H]2OC[C@@](O)(CNC(=O)c3ccccc3)[C@@H]2O)c1 [compound 163, N-(((2R,3R,4S)-4-(benzamidomethyl)-3,4-dihydroxytetrahydrofuran-2-yl)methyl)-3-methoxybenzamide] | 28.44 |  | 27.21 |  |  | 
N#Cc1ccc(C(=O)NC[C@]2(O)CO[C@H](CNC(=O)c3ccccc3Cl)[C@H]2O)cc1 [compound 236, 2-chloro-N-(((2R,3R,4S)-4-((4-cyanobenzamido)methyl)-3,4-dihydroxytetrahydrofuran-2-yl)methyl)benzamide] |  |  |  |  | 73.00 | 70.73
O=C(NC[C@]1(O)CO[C@H](CN2C(=O)c3ccccc3C2=O)[C@H]1O)c1ccc(-c2ccccc2)cc1 [compound 254, N-(((3S,4R,5R)-5-((1,3-dioxoisoindolin-2-yl)methyl)-3,4-dihydroxytetrahydrofuran-3-yl)methyl)-[1,1′-biphenyl]-4-carboxamide] | 3.52 | 4.79 | 30.44 | 57.1 |  | 
O=C(NC[C@H]1OC[C@@](O)(CNC(=O)c2ccccc2)[C@@H]1O)c1ccc(F)c(F)c1 [compound 181, N-(((2R,3R,4S)-4-(benzamidomethyl)-3,4-dihydroxytetrahydrofuran-2-yl)methyl)-3,4-difluorobenzamide] | 67.74 |  | 59.09 |  |  | 
O=C(NC[C@H]1OC(O)[C@@](O)(CNC(=O)c2cc(O)c(O)c(O)c2)[C@@H]1O)c1cc(O)c(O)c(O)c1 (stereo partly drawn) [compound 15, N,N′-(((2R,3R,4R)-3,4,5-trihydroxytetrahydrofuran-2,4-diyl)bis(methylene))bis(3,4,5-trihydroxybenzamide)] | 22.35 | 63.8 | 57.74 | 191 |  | 
O=C(NC[C@H]1OC(O)[C@@](O)(CNC(=O)c2ccc(O)c(O)c2)[C@@H]1O)c1ccc(O)c(O)c1 (stereo partly drawn) [compound 17, N,N′-(((2R,3R,4R)-3,4,5-trihydroxytetrahydrofuran-2,4-diyl)bis(methylene))bis(3,4-dihydroxybenzamide)] | 55.76 | 182 | 61.16 | 169 |  | 
O=C(NC[C@H]1OC[C@@](O)(CNC(=O)c2ccccc2)[C@@H]1O)c1ccnnc1 [compound 207, N-(((2R,3R,4S)-4-(benzamidomethyl)-3,4-dihydroxytetrahydrofuran-2-yl)methyl)pyridazine-4-carboxamide] | 6.950 | 7.28 | 13.70 | 8.54 |  | 
O=C(NC[C@]1(O)CO[C@H](CNC(=O)c2ccccc2Cl)[C@H]1O)c1ccc(C(F)(F)F)cc1 [compound 238, 2-chloro-N-(((2R,3R,4S)-3,4-dihydroxy-4-((4-(trifluoromethyl)benzamido)methyl)tetrahydrofuran-2-yl)methyl)benzamide] |  | 84.6 |  | 75.2 | 45.03 | 68.51
